From patent US6706734B2, “Arylpiperidinol and arylpiperidine derivatives and pharmaceuticals containing the same” (Daiichi Suntory Pharma Co., Ltd., priority 1996, dated 2004)
Structures can show the parent of a compound that is named as a salt.

How the values were obtained:
[1] = tested on: DBA/2N type mice; assay: Audiogenic seizure suppressing effect; assay type: in vivo; details: Mus musculus, ip, 20 min, compound 10 mg/kg, i.p.; audio stimulus after 20 minutes; suppression of average seizure score; read-out: Antiseizure effect (suppression rate %)
Experimental: Audiogenic Seizure Suppressing Effect
The audiogenic seizure suppressing effect of the compounds was evaluated by the method of Sarro et al. [G. B. De Sarro et al., Br. J. Pharmacol., 93, 247 (1988)]. That is, the compound dissolved in 10% 2-hydroxypropyl-β-cyclodextrin was administered intraperitoneally to DBA/2N type mice (male, 3 weeks old). After 20 minutes, a supersonic washer was used to apply audio stimulus of at least 90 dB for one minute. The wild running (WR), clonic seizures (clonus), tonic seizures (tonus), and respiratory arrest (RA) were observed.

[2] = tested on: Sodium channel; assay: Inhibitory effect of veratrizine-induced sodium channel activity (synaptosome membrane potential, Rhodamine 6G); assay type: biochemical, Wistar rats; details: compound 0.1 μM, rat brain synaptozomes, veratridine-induced depolarization
Experimental: Inhibitory Effect of Veratrizine-induced Sodium Channel Activity
The membrane potential of the synaptozomes prepared from the brain membrane of Wistar rats (male, 10 to 12 weeks old) was measured by the method of Aiuchi et al. (t. Aiuchi et al: Biochimi. Biophys. Acta. 771, 228 (1984)) using a membrane potential sensitive fluorescent dye Rhodamine 6G to evaluate the effects of suppression of the compound on the veratrizine-inducing depolarization response.

[3] = Acute toxicity after intravenous injection; details: mouse, in vivo, ddY mice (male, 6 weeks old), death rate up to 24 hours, read-out: 50% lethal dosage LD50 of acute toxicity
From the text: The compound according to the present invention is low in toxicity.

[4] = tested on: T-type Ca^2+ channel; assay: T-type calcium channel inhibitory effect (whole-cell patch clamp, hippocampal CA1 pyramidal cells); details: read-out: T-type Ca^2+ channel inhibitory effect IC50; suppression of peak current after one minute of application; rat hippocampal CA1 pyramidal cells

| melting point | SMILES | inhibition in vivo at 10 mg/kg [1] | Anti-veratridine effect (inhibiting rate %) [2] | LD50 at 24 h [3] | IC50 [4] | Anti-veratridine effect (inhibiting rate %) ([2]; 0.1 µM) |
| --- | --- | --- | --- | --- | --- | --- |
| 148 to 150 °C | OC1(c2ccc(Oc3ccc(F)cc3)cc2)CCN(C/C=C/c2ccccc2)CC1 (as salt: fumarate) |  |  |  |  |  |
| 50 to 52 °C | O=C(CN1CCC(O)(c2ccc(Oc3ccc(F)cc3)cc2)CC1)c1ccccc1 (as salt: fumarate) |  |  |  |  |  |
| 48 to 50 °C | O[C@H](COc1ccccc1)CN1CCC(O)(c2ccc(Oc3ccc(F)cc3)cc2)CC1 (as salt: fumarate) |  |  |  |  |  |
|  | OC1(c2ccc(-c3ccccc3)c(F)c2)CCN(C/C=C/c2ccccc2)CC1 [Compound 17, (E)-4-(3-fluoro-4-phenyl)phenyl-1-(3-phenyl-2-propenyl)-4-piperidinol] | 88% | 26.8% | 32 mg/kg | 1900 nM |  |
|  | OC1(c2ccc(Oc3ccccc3)cc2)CCN(C/C=C/c2ccccc2)CC1 [Compound 34, (E)-4-(4-phenoxy)phenyl-1-(3-phenyl-2-propenyl)-4-piperidinol] | 80% | 29.9% |  | 1700 nM |  |
|  | OC(COc1ccccc1)CN1CCC(O)(c2ccc(Cc3ccc(F)cc3)cc2)CC1 (stereo not shown) [Compound 39, 4-[4-(4-fluorophenyl)methylphenyl]-1-(2-hydroxy-3-phenoxy)propyl-4-piperidinol] | 90% |  |  | 1300 nM | 18.7% |
|  | O[C@H](COc1ccccc1)CN1CCC(O)(c2ccc(-c3ccccc3)c(F)c2)CC1 [Compound 42, (S)-4-(3-fluoro-4-phenyl)phenyl-1-(2-hydroxy-3-phenoxy)propyl-4-piperidinol] | 72% | 21% |  | 550 nM |  |
|  | O[C@@H](COc1ccccc1)CN1CCC(O)(c2ccc(-c3ccccc3)c(F)c2)CC1 [Compound 43, (R)-4-(3-fluoro-4-phenyl)phenyl-1-(2-hydroxy-3-phenoxy)propyl-4-piperidinol] | 90% | 21.2% |  | 1400 nM |  |
